Results from patent publication US12473304B2, “Heterocyclic PAD4 inhibitors” (BRISTOL-MYERS SQUIBB COMPANY, priority 2020, dated 2025).
pIC50: −log10 of the molar value.

Biological target: human PAD4 (hPAD4) (Homo sapiens (Human), UniProt Q9UM07)
Assay: RFMS Human PAD4 Functional Assay 1
Format: biochemical
Details: RFMS assay 1; 5 nM hPAD4, 250 μM BAEE substrate, 50 μM calcium, 37° C.
How it was run: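 Citrullination product read by RapidFire triple-quad MRM against a modified-citrulline internal standard, after TCA stop and 30 min phenyl glyoxal step at 37 °C. Reaction: 250 μM BAEE, 5 nM human PAD4, 90 min at 37 °C, pH 7.5 HEPES buffer with 50 μM calcium and 5 μM TPEN, following 30 min compound–enzyme preincubation (max 50 μM).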

human PAD4 (hPAD4), sequence (Q9UM07 whole entry): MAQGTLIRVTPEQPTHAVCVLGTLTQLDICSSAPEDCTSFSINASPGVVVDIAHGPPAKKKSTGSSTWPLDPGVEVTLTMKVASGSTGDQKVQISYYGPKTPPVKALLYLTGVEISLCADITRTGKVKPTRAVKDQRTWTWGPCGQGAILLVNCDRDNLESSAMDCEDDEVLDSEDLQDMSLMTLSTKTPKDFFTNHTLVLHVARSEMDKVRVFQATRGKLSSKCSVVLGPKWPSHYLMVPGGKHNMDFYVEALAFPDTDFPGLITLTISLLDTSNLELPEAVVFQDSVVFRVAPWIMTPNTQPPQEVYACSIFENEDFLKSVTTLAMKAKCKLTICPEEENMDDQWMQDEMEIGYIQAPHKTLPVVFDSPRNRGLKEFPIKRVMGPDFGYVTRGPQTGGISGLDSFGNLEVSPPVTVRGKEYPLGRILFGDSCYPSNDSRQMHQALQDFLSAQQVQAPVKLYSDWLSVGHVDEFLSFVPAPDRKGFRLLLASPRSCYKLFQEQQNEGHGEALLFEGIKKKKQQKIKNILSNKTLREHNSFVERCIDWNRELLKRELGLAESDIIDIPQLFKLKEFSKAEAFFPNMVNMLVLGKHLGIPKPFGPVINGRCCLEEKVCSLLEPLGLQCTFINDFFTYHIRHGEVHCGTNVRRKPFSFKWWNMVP

Row | pIC50 | Compound
1 | 7.07 | Cc1c(-c2cc3ccc(C4CC4)nc3n2CC2CC2)nn2cc(C(=O)N3CC4CCC3[C@@H]4N)cc(F)c12 (stereo partly drawn) [Example 41, ((7R)-7-Amino-2-azabicyclo[2.2.1]heptan-2-yl)(2-(6-cyclopropyl-1-(cyclopropylmethyl)-1H-pyrrolo[2,3-b]pyridin-2-yl)-4-fluoro-3-methylpyrazolo[1,5-a]pyridin-6-yl)methanone]
2 | 8.05 | Cc1c(-c2cc3ccc(-c4ccc5c(c4)CNC5=O)nc3n2CC2CC2)nn2cc(C(=O)N3CC4CCC3[C@@H]4N)cc(F)c12 (stereo partly drawn) [Example 42, 5-(2-(6-((7R)-7-Amino-2-azabicyclo[2.2.1]heptane-2-carbonyl)-4-fluoro-3-methylpyrazolo[1,5-a]pyridin-2-yl)-1-(cyclopropylmethyl)-1H-pyrrolo[2,3-b]pyridin-6-yl)isoindolin-1-one]
3 | 6.82 | Cc1c(-c2cc3ccc(-c4ccn5c(C)nnc5c4)nc3n2CC2CC2)nn2cc(C(=O)N3CC4CCC3[C@@H]4N)cc(F)c12 (stereo partly drawn) [Example 43, ((7R)-7-Amino-2-azabicyclo[2.2.1]heptan-2-yl)(2-(1-(cyclopropylmethyl)-6-(3-methyl-[1,2,4]triazolo[4,3-a]pyridin-7-yl)-1H-pyrrolo[2,3-b]pyridin-2-yl)-4-fluoro-3-methylpyrazolo[1,5-a]pyridin-6-yl)methanone]
4 | 5.83 | Cc1c(-c2cc3ccc(-c4ccc(OC(F)F)c(F)c4)nc3n2CC2CC2)nn2cc(C(=O)N3CC4CCC3[C@@H]4N)cc(F)c12 (stereo partly drawn) [Example 44, ((7R)-7-Amino-2-azabicyclo[2.2.1]heptan-2-yl)(2-(1-(cyclopropylmethyl)-6-(4-(difluoromethoxy)-3-fluorophenyl)-1H-pyrrolo[2,3-b]pyridin-2-yl)-4-fluoro-3-methylpyrazolo[1,5-a]pyridin-6-yl)methanone]
5 | 7.00 | COc1cc(-c2ccc3cc(-c4nn5cc(C(=O)N6CC7CCC6[C@@H]7N)cc(F)c5c4C)n(CC4CC4)c3n2)c(F)cn1 (stereo partly drawn) [Example 45, ((7R)-7-Amino-2-azabicyclo[2.2.1]heptan-2-yl)(2-(1-(cyclopropylmethyl)-6-(5-fluoro-2-methoxypyridin-4-yl)-1H-pyrrolo[2,3-b]pyridin-2-yl)-4-fluoro-3-methylpyrazolo[1,5-a]pyridin-6-yl)methanone]
6 | 7.39 | Cc1c(-c2cc3ccc(-c4ccc5c(c4)C(=O)NC5)nc3n2CC2CC2)nn2cc(C(=O)N3CC4CCC3[C@@H]4N)cc(F)c12 (stereo partly drawn) [Example 46, 6-(2-(6-((7R)-7-Amino-2-azabicyclo[2.2.1]heptane-2-carbonyl)-4-fluoro-3-methylpyrazolo[1,5-a]pyridin-2-yl)-1-(cyclopropylmethyl)-1H-pyrrolo[2,3-b]pyridin-6-yl)isoindolin-1-one]
7 | 5.83 | Cc1c(-c2cc3ccc(-c4ccc(OC(F)F)cc4)nc3n2CC2CC2)nn2cc(C(=O)N3CC4CCC3[C@@H]4N)cc(F)c12 (stereo partly drawn) [Example 47, ((7R)-7-Amino-2-azabicyclo[2.2.1]heptan-2-yl)(2-(1-(cyclopropylmethyl)-6-(4-(difluoromethoxy)phenyl)-1H-pyrrolo[2,3-b]pyridin-2-yl)-4-fluoro-3-methylpyrazolo[1,5-a]pyridin-6-yl)methanone]
8 | 6.49 | Cc1c(-c2cc3ccc(-c4ccc(O)c(F)c4)nc3n2CC2CC2)nn2cc(C(=O)N3CC4CCC3[C@@H]4N)cc(F)c12 (stereo partly drawn) [Example 48, ((7R)-7-Amino-2-azabicyclo[2.2.1]heptan-2-yl)(2-(1-(cyclopropylmethyl)-6-(3-fluoro-4-hydroxyphenyl)-1H-pyrrolo[2,3-b]pyridin-2-yl)-4-fluoro-3-methylpyrazolo[1,5-a]pyridin-6-yl)methanone]
9 | 7.44 | Cc1c(-c2cc3ccc(-c4cccc(O)c4F)nc3n2CC2CC2)nn2cc(C(=O)N3CC4CCC3[C@@H]4N)cc(F)c12 (stereo partly drawn) [Example 49, ((7R)-7-Amino-2-azabicyclo[2.2.1]heptan-2-yl)(2-(1-(cyclopropylmethyl)-6-(2-fluoro-3-hydroxyphenyl)-1H-pyrrolo[2,3-b]pyridin-2-yl)-4-fluoro-3-methylpyrazolo[1,5-a]pyridin-6-yl)methanone]
10 | 7.13 | COC1CN(c2ccc3cc(-c4nn5cc(C(=O)N6CC7CCC6[C@@H]7N)cc(F)c5c4C)n(CC4CC4)c3n2)C1 (stereo partly drawn) [Example 50, ((7R)-7-Amino-2-azabicyclo[2.2.1]heptan-2-yl)(2-(1-(cyclopropylmethyl)-6-(3-methoxyazetidin-1-yl)-1H-pyrrolo[2,3-b]pyridin-2-yl)-4-fluoro-3-methylpyrazolo[1,5-a]pyridin-6-yl)methanone]
11 | 6.96 | Cc1c(-c2cc3ccc(N4CCC[C@@H](O)C4)nc3n2CC2CC2)nn2cc(C(=O)N3CC4CCC3[C@@H]4N)cc(F)c12 (some centres unmarked) [Example 51]
12 | 6.05 | Cc1c(-c2cc3cccnc3n2CC2CC2)nn2cc(C(=O)N3C[C@H](N)C[C@@H](F)C3)cc(F)c12 [Example 52, ((3R,5R)-3-Amino-5-fluoropiperidin-1-yl)(2-(1-(cyclopropylmethyl)-1H-pyrrolo[2,3-b]pyridin-2-yl)-4-fluoro-3-methylpyrazolo[1,5-a]pyridin-6-yl)methanone]
13 | 6.35 | Cc1c(-c2cc3ccc(Cl)nc3n2CC2CC2)nn2cc(C(=O)N3C[C@H](N)C[C@@H](F)C3)cc(F)c12 [Example 53, ((3R,5R)-3-Amino-5-fluoropiperidin-1-yl)(2-(6-chloro-1-(cyclopropylmethyl)-1H-pyrrolo[2,3-b]pyridin-2-yl)-4-fluoro-3-methylpyrazolo[1,5-a]pyridin-6-yl)methanone]
14 | 6.45 | Cc1ccc2cc(-c3nn4cc(C(=O)N5C[C@H](N)C[C@@H](F)C5)cc(F)c4c3C)n(CC3CC3)c2n1 [Example 54, ((3R,5R)-3-Amino-5-fluoropiperidin-1-yl)(2-(1-(cyclopropylmethyl)-6-methyl-1H-pyrrolo[2,3-b]pyridin-2-yl)-4-fluoro-3-methylpyrazolo[1,5-a]pyridin-6-yl)methanone]
15 | 6.27 | Cc1c(-c2cc3ccc(-c4cccc(O)c4F)nc3n2CC2CC2)nn2cc(C(=O)N3C[C@H](N)C[C@@H](F)C3)cc(F)c12 [Example 55, ((3R,5R)-3-Amino-5-fluoropiperidin-1-yl)(2-(1-(cyclopropylmethyl)-6-(2-fluoro-3-hydroxyphenyl)-1H-pyrrolo[2,3-b]pyridin-2-yl)-4-fluoro-3-methylpyrazolo[1,5-a]pyridin-6-yl)methanone]
16 | 6.33 | Cc1c(-c2cc3ccc(-c4ccc(C(N)=O)c(F)c4)nc3n2CC2CC2)nn2cc(C(=O)N3C[C@H](N)C[C@@H](F)C3)cc(F)c12 [Example 56, 4-(2-(6-((3R,5R)-3-Amino-5-fluoropiperidine-1-carbonyl)-4-fluoro-3-methylpyrazolo[1,5-a]pyridin-2-yl)-1-(cyclopropylmethyl)-1H-pyrrolo[2,3-b]pyridin-6-yl)-2-fluorobenzamide]
17 | 6.11 | Cc1c(-c2cc3ccc(C4CC4)nc3n2CC2CC2)nn2cc(C(=O)N3C[C@H](N)C[C@@H](F)C3)cc(F)c12 [Example 57, ((3R,5R)-3-Amino-5-fluoropiperidin-1-yl)(2-(6-cyclopropyl-1-(cyclopropylmethyl)-1H-pyrrolo[2,3-b]pyridin-2-yl)-4-fluoro-3-methylpyrazolo[1,5-a]pyridin-6-yl)methanone]
